Literature values, collected in patent US8105627B2, “Extended release venlafaxine tablet formulation” (priority 2003, dated 2012).
Structures can show the parent of a compound that is named as a salt.

Settings: plural daily dosing regimen

**Q.** Which results are given for `COc1ccc(C(CN(C)C)C2(O)CCCCC2)cc1` (centres unmarked) [venlafaxine hydrochloride, 1-[(2-dimethylamino)-1-(4-methoxyphenyl)ethyl]cyclohexanol]?
**A.** patients experiencing nausea: about forty five percent; patients in whom vomiting occurs: about seventeen percent
